In patent publication US20240335395A1, “COMPOSITIONS AND METHODS FOR PREVENTING AND/OR TREATING DISEASE ASSOCIATED WITH IL-23 EXPRESSION” (ALLSPIM, priority 2021, published 2024):

Legend:
[1] = system: IBA1 positive macrophage/microglia; experiment: Laser-induced CNV in rats, IBA-1 positive macrophages on RPE-choroid flat-mounts; type: in vivo, rat; conditions: intravitreous injection
Protocol: Animals. All experiments were performed in accordance with the European Communities Council Directive 86/609/EEC and approved by local ethical committees (#2541-2015110210279792 v3). Six- to eight-week-old male Long Evans rats from the Janvier Breeding Center (Le Genest-Saint-Isle, France) were used to create a rat model of choroidal neovascularization (CNV) used as a model of human wet macular degeneration. Laser-induced CNV. After anesthesia and dilation of the pupils, coverslips were positioned on the cornea as a contact glass. For rats, six or eight burns were performed 2 to 3 optic disc diameters away from the optic nerve with an Argon laser (532 nm) mounted on a slit lamp (175 mW, 0.1 s and 50 μm). Both eyes of animals received laser induction. The presence of a bubble witnessed the rupture of Bruch's membrane and confirmed a successful laser impact. Treatments. After laser photocoagulation, rats were divided into 3 treatment groups: —Intravitreous injection (IVT) of 2,4-D (identified as “new treatment”, New T), —IVT of vehicle (PBS), —IVT of triamcinolone acetonide (Kenacort® 40 mg/ml; TA) (n=12 rats per group). The IVT consisted of 5 μl injected with a 31G needle mounted on a micro-thin (100 μl) syringe posterior to the limbus, avoiding the lens. IVT was performed immediately after laser had been performed. […]

[2] = system: MSU-induced knee joint edema; experiment: MSU-induced knee joint edema in mice; type: in vivo, mouse; conditions: 20 h
Protocol: 2,4-D, isolated and purified from Chloranthus spicatus (purity≥98%), was purchased from BOC Science (Shirley, NY). Colchicine (CLC) (purity≥96%) and dexamethasone (DEX) (purity≥98%) were purchased from Sigma. Mice (six per group) were treated with 2,4-D (100 mg/kg or 20 mg/kg, i.p.), CLC (1 mg/kg or 0.2 mg/kg, i.p.), DEX (0.5 mg/kg or 0.1 mg/kg, i.p.), or vehicle (20% polyoxyethylenesorbitan monooleate (Tween 80) plus PBS) 30 min before intra-articular stimulus with MSU (100 μg/10 μL, i.a.). Six mice with intra-articular injection with PBS alone served as a negative control.
Preparation of monosodium urate crystal (MSU). MSU crystals were prepared as described previously (Ruiz-Miyazawa et al., 2017). Briefly, 800 mg of monosodium urate was dissolved in 155 ml of boiling milli-Q water containing 2N NaOH. After pH adjustment to 8.9, the solution was cooled gradually by stirring at room temperature and crystallized overnight at 4° C. Crystals were collected, and centrifuged at 3,000×g for 2 min at 4° C. The crystals were evaporated and sterilized by heating at 180° C. for 2 h and stored in a sterile environment until use. The load of endotoxin present in the MSU crystals was determined using a ToxinSensor^TM Single Test Kit (GenScript).
Induction of MSU-Induced Knee Joint Inflammation. Male ICR (CD-1) mice (35-45 g, 10-12 weeks) were purchased from VitalRiver Inc (Beijing, China) and were kept in an animal care facility under controlled temperature of 21±1° C., humidity, and on a light/dark cycle, with ad libitum access to water and standard laboratory chow diet. Animal care and handling procedures were approved by the Animal Ethics Committee of GZUCM (Guangzhou University of Chinese Medicine). All efforts were made to minimize animal suffering and to reduce the number of animals used. Joint inflammation was induced by the intra-articular (i.a.) administration of MSU (200 μg/20 μl) into the right and left knee joints of mice under inhaled 3% isoflurane anesthesia. Control animals received an injection (i.a.) of sterile PBS (20 μL).
Evaluation of Knee Joint Edema. Knee joint edema was determined with a caliper (Mitutoyo) before (zero time), and after the intra-articular injection with MSU at the times indicated. Knee joint edema was determined for each mouse by the difference between the time points indicated on figures and the zero time (Ruiz-Miyazawa et al, 2017). The edema value is represented as Amm/joint.
Statistical Analysis. Data were analyzed using GraphPad Prism statistical software (GraphPad Software, Inc., United States-500.288, version 5.0). Results are presented as means±SEM or SD of measurements made on 6 mice per group, with statistical significance determined by two-way ANOVA, comparing each group to the control (“Model”) group. For in vitro experiments, microassays were performed in quadruplicate. p<0.05 was considered significant (*p<0.05, **p<0.01, ***p<0.001).

Q: `COc1cc(O)c(OC)c(O)c1C(=O)/C=C/c1ccccc1` [2,4-D, 2′,4′-dihydroxy-3′,6′-dimethoxychalcone] was tested. Which “number of infiltrating IBA-1 positive macrophages in CNV” value [1] did it give?
A: The value was “important reduction”.

Q: And the “reduction of MSU-induced knee joint edema” value ([2]; high dose i.p.: 2,4-D 100 mg/kg, CLC 1 mg/kg, DEX 0.5 mg/kg)?
A: Its value is 68.4%.

Q: What about the “reduction of MSU-induced knee joint edema” value ([2]; low dose i.p.: 2,4-D 20 mg/kg, DEX 0.1 mg/kg) of the same compound?
A: Its value is 45.3%.
